This test concerns the target T1, Pdia4 (Mus musculus, UniProt P08003).
T1 construct: recombinant Pdia4; Flag-Pdia4 plasmid used in Min6 cells
T1 sequence (P08003 21-638): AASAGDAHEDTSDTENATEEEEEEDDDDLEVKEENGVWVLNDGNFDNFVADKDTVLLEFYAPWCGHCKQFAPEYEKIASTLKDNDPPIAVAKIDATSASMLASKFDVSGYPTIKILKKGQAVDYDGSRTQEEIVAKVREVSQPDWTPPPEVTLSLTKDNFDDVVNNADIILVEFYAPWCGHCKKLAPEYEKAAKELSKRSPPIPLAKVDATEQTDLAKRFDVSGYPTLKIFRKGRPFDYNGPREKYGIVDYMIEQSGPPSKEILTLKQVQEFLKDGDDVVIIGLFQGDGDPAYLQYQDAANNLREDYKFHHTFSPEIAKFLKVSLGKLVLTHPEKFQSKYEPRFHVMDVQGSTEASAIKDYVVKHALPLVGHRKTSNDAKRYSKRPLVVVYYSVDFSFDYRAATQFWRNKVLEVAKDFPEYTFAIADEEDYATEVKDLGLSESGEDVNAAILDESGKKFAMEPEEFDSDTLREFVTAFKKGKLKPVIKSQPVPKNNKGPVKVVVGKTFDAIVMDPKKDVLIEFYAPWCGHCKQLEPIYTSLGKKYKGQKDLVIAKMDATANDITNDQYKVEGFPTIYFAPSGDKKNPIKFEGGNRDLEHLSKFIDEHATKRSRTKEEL
The experiment in a line: insulin reduction turbidity assay, […] nm. It is filed as biochemical. The note with it: insulin substrate; 25 °C; 30 min.

PS1 returned an IC50 of 4 µM.

What is called IC50 is the concentration needed to halve the response being measured. Higher therefore signals weaker potency.
